According to ChEMBL document CHEMBL1201862, “PubChem BioAssay data set” (2004):
The source made the active and inactive calls.

Experiments:
Procathepsin L = Procathepsin L (Homo sapiens, UniProt P07711)
Aspartyl aminopeptidase = Aspartyl aminopeptidase (Plasmodium falciparum 3D7, UniProt Q8I2J3)
NADPH oxidase 1 = molecular target: T1, NADPH oxidase 1 (Homo sapiens, UniProt Q9Y5S8); test: Luminescence-based cell-based dose response assay to identify inhibitors of NADPH oxidase 1 (NOX1).; assay type: functional
T1 sequence (Q9Y5S8 whole entry): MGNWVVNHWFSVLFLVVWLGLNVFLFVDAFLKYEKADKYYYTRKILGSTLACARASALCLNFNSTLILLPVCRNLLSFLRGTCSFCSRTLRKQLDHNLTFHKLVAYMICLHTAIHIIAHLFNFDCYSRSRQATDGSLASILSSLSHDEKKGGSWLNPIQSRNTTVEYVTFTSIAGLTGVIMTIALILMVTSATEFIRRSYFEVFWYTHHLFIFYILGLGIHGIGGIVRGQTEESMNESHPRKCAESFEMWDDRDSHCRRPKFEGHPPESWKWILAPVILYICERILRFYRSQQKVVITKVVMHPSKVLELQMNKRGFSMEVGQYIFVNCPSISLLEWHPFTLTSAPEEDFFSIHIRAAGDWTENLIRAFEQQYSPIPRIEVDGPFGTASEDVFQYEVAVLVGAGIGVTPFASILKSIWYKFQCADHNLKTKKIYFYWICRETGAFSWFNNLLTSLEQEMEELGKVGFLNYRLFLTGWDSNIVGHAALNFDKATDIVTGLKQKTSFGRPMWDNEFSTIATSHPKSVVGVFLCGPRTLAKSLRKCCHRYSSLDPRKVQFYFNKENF

[1] = molecular target: T2, Mannose-6-phosphate isomerase (Homo sapiens, UniProt P34949); test: MPI inhibition at elevated mannose 6-phosphate – biochemical, fluorescence intensity, high mannose 6-phosphate, primary screen (AID 1220)
T2 sequence (P34949 whole entry): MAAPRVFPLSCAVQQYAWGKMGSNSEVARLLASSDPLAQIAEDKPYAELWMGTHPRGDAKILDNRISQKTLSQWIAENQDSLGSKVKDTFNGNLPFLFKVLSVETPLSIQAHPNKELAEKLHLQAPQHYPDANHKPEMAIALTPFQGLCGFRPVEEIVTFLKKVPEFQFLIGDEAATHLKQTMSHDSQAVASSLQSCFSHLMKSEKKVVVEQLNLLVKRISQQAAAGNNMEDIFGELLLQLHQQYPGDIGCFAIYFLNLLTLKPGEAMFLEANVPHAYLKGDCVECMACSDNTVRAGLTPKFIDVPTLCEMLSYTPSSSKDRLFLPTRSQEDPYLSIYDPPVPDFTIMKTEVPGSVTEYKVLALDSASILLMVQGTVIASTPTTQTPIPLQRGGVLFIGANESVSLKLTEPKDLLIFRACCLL

[2] = viability of PTEN-deleted HCT116 cells – cell-based, HCT116 PTEN knockout, dose response (AID 1047); assay type: functional;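 note: HCT116 colon tumor cells with PTEN knocked out; cells exposed to compound for 60 hours before readout; potency for loss of cell viability measured by luminescence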
[3] = molecular target: T2, Mannose-6-phosphate isomerase; test: MPI enzyme activity inhibition – biochemical, fluorescence intensity, coupled assay, primary screen (AID 1209)
[4] = viability of HCT116 lacking mutant beta-catenin – cell-based, human colon tumor, dose response (AID 1045); assay type: functional;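 note: HCT116 colon tumor cells with beta catenin knocked out; cells exposed to compound for 60 hours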
Cytochrome P450 1A2 = molecular target: T3, Cytochrome P450 1A2 (Homo sapiens, UniProt P05177);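 note: PubChem cytochrome P450 panel assay, CYP1A2 panel member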
T3 sequence (P05177 whole entry): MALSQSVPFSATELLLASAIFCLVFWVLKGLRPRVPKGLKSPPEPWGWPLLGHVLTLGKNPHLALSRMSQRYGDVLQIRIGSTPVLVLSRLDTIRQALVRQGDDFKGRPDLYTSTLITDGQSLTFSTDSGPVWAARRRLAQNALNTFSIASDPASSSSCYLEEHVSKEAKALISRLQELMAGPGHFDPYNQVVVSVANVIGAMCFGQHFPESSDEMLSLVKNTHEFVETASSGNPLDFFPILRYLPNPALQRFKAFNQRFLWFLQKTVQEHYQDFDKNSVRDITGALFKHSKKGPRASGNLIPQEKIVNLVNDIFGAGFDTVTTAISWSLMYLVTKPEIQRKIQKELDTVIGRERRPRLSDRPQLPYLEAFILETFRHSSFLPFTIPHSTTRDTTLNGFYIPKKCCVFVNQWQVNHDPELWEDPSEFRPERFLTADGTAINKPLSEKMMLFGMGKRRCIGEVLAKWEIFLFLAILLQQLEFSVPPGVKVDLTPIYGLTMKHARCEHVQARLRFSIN

[5] = Luminescence Cell-Based Dose Confirmation HTS to Identify Activators of 5'UTR Stem-Loop Driven Alpha-Synuclein mRNA Translation in H4 Neuroglioblastoma Cells. [Related pubchem assays: 1829 (Project Summary), 1814 (Primary HTS)]; assay type: functional
Cytochrome P450 2C19 = Cytochrome P450 2C19 (Homo sapiens, UniProt P33261); test: Cytochrome panel assay with activity outcomes. Panel member name: p450-cyp2c19 Compounds with AC50 equal or less than 10 uM are considered active; assay type: functional; conditions: read-out: AC50
H4 = test: Luminescence Cell-Based Dose Response HTS to Identify Activators of 5'UTR Stem-Loop Driven Prion Protein mRNA Translation in H4 Neuroglioblastoma Cells. [Related pubchem assays: 1829 (Project Summary), 1814 (Primary HTS)]; assay type: functional; conditions: Homo sapiens
[6] = Luminescence Cell-Based Dose Response HTS to Identify Activators of Luciferase Translation or Activity in H4 […] Cells. [Related pubchem assays: 1829 (Project Summary), 1814 (Primary HTS)]; assay type: functional
[7] = A Cell Based Secondary Assay To Explore Cytotoxicity of Compounds that Sensitize Mycobacterium Tuberculosis to Beta-Lactam Antibiotics.; assay type: functional
[8] = molecular target: Peroxisome proliferator-activated receptor gamma/Nuclear receptor coactivator 3 (Homo sapiens, UniProt P37231); assay type: functional;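 note: agonist potency for raising coactivator recruitment to the receptor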
[9] = molecular target: Peroxisome proliferator-activated receptor gamma/Nuclear receptor coactivator 2 (Homo sapiens, UniProt P37231); assay type: functional;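 note: agonist potency for raising coactivator recruitment to the receptor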
[10] = molecular target: Peroxisome proliferator-activated receptor gamma/Nuclear receptor coactivator 1 (Homo sapiens, UniProt P37231); assay type: functional;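 note: agonist potency as compounds enhance coactivator SRC-1 recruitment to PPARgamma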
BJ [11] = test: BJ-TERT-LT-ST fibroblast viability loss – cell-based, RAS-independent, luminescence, dose response (AID 1935); assay type: functional; conditions: Homo sapiens;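 note: BJ fibroblasts immortalized with TERT plus LT and ST oncogenes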
[12] = HEK-293T viability loss after treatment – luminescence, T-cell screen hits, cytotoxicity control for TCR NF-kB inhibitor project, dose response (AID 489026); assay type: functional, cell-based;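 note: cells exposed to compound about 14 hours before the viability readout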
BJ [13] = test: cells; assay type: functional, cell-based; conditions: Homo sapiens
BJ [14] = test: BJ-TERT fibroblast viability loss – cell-based, RAS-independent, luminescence, dose response (AID 1933); assay type: functional; conditions: Homo sapiens
BJ [15] = test: growth inhibition of engineered Ras-driven BJ cells – cell-based, alamar blue fluorescence, cherrypicked samples, dose response (AID 2631); assay type: functional; conditions: Homo sapiens;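 note: confirmatory dose-response assay in RAS-dependent BJ fibroblasts engineered with TERT, LT and ST, with cytotoxicity read by fluorescence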
[16] = DRD fibroblast viability loss – cell-based, non-viral oncogenic, luminescence, dose response (AID 1934); assay type: functional; conditions: Homo sapiens
[17] = Luminescence-based dose response cell-based high throughput screening assay for cytotoxic compounds using the IEC-6 intestinal epithelial cell line. [Related pubchem assays: 1858 (Summary AID.), 1825 (Counterscreen.), 1907 (Confirmation screen.)]; assay type: functional
HT-1080 = test: HT1080 cell viability loss – fluorescence readout (AID 620); assay type: functional, cell-based; conditions: Homo sapiens
[18] = molecular target: Luciferin 4-monooxygenase (Photinus pyralis, UniProt P08659); test: Counter Screen for Luciferase-based Assay Positives. [Related pubchem assays: 620, 618, 411 ]
[19] = antiviral protection against BTV-induced cell death – arbovirus, BSR cells, confirmation (AID 1250); assay type: functional;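 note: protection from viral cytopathic effect measured as cell viability by ATP luminescence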
Vero [20] = test: cells; assay type: functional, cell-based; conditions: Chlorocebus sabaeus
Vero [21] = test: cells; assay type: functional; conditions: Chlorocebus sabaeus
[22] = HEK-293T cell viability reduction – luminescence, B-cell screen hits, cytotoxicity control for BCR NF-kB inhibitor project, dose response (AID 489021); assay type: functional, cell-based;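 note: HEK-293T cells carrying an NF-kB luciferase reporter; cells exposed to compound for about 14 hours before viability readout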
[23] = luciferase reporter signal suppression in cells – H4 neuroglioma cells, luminescence, dose response (AID 1990); assay type: functional, cell-based
INS1 = test: INS-1E survival protection against cytokine death – cell-based, luminescence, retest, dose response (AID 449756); assay type: functional; conditions: Rattus norvegicus;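 note: cell death triggered by IL-1 beta plus TNF-alpha plus IFN-gamma mixture; protective hits raise ATP signal compared with cytokine alone wells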
[24] = alpha-synuclein stem-loop luciferase translation blockers – H4 neuroglioma cells, luminescence, confirmation (AID 1988); assay type: functional, cell-based
[25] = Luminescence Cell-Based Dose Response HTS to Identify Inhibitors of 5'UTR Stem-Loop Driven Prion Protein mRNA Translation in H4 Neuroglioblastoma Cells. [Related pubchem assays: 1827 (Project Summary), 1813 (Primary HTS)]; assay type: functional
[26] = blockade of melanocortin 4 receptor signaling – cell-based, plate reader, cherry pick, counter-screen for LGR2 antagonist project, dose response (AID 743444); assay type: functional;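 note: transfected HEK 293 cells stimulated with alpha-MSH peptide; potency of inhibitors of the alpha-MSH evoked signal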
[27] = blockers of bursicon-stimulated LGR2 cAMP reporter – cell-based, HEK293, CRE-luciferase reporter, cherry pick, set 2, dose response (AID 743343); assay type: functional;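 note: transfected cells were stimulated with diluted bursicon conditioned medium after compound addition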
[28] = molecular target: T4, Nuclear receptor subfamily 0 group B member 1 (Homo sapiens, UniProt P51843); assay type: functional, cell-based;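 note: HEK293T cells transfected with SF-1 and DAX-1 plus StAR promoter luciferase reporter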
T4 sequence (P51843 whole entry): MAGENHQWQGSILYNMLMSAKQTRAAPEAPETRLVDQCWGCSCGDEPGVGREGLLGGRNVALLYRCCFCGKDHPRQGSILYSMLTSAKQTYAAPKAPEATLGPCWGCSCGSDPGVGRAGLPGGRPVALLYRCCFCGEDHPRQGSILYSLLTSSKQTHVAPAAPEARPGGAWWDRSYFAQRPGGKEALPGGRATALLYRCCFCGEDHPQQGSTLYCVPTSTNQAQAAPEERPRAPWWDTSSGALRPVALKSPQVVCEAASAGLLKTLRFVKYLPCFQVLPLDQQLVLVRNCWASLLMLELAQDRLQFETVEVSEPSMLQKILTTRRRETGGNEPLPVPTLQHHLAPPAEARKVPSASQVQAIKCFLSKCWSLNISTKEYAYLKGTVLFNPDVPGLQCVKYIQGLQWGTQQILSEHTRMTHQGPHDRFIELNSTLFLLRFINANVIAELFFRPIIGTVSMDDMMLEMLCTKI

cells = assay type: functional, cell-based

Chain of Cytochrome P450 2C19 (P33261 whole entry): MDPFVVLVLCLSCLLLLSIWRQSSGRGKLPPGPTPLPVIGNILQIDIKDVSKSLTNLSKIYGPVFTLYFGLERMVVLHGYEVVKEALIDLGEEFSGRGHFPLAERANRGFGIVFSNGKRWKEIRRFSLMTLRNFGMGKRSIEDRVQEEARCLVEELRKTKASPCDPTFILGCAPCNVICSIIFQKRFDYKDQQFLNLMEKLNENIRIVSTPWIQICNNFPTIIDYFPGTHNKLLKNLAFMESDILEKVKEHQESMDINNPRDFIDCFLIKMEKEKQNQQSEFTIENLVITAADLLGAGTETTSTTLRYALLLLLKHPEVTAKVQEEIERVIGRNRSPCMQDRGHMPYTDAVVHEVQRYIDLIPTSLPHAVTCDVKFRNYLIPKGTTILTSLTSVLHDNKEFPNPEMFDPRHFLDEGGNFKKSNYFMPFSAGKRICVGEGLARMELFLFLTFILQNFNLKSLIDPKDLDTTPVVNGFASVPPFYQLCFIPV
Chain of Aspartyl aminopeptidase (Q8I2J3 whole entry): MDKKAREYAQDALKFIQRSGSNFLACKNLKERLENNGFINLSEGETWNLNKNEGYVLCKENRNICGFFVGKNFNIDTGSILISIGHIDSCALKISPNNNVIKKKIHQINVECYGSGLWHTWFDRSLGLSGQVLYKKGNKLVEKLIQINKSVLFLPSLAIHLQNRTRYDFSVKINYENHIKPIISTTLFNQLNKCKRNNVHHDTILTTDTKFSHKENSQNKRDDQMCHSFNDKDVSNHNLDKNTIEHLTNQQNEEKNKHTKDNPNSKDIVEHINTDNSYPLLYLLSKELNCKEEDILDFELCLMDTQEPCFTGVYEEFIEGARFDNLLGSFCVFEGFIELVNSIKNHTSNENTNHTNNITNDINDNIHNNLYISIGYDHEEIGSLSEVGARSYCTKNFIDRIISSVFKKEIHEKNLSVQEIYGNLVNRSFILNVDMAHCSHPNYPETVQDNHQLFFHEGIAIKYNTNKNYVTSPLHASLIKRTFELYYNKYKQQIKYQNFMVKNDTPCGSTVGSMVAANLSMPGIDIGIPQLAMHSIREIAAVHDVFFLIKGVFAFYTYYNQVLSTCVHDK
Chain of Procathepsin L (P07711 whole entry): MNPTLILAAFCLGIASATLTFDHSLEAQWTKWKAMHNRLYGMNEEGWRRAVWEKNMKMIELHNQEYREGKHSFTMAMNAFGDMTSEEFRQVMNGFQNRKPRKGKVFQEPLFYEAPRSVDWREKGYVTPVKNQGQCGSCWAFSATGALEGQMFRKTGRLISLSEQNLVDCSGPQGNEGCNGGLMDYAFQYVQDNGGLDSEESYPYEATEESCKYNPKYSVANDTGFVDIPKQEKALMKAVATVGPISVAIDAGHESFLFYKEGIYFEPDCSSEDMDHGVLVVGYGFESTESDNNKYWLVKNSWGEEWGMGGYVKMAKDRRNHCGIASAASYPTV
Chain of Peroxisome proliferator-activated receptor gamma/Nuclear receptor coactivator 2 (P37231 whole entry): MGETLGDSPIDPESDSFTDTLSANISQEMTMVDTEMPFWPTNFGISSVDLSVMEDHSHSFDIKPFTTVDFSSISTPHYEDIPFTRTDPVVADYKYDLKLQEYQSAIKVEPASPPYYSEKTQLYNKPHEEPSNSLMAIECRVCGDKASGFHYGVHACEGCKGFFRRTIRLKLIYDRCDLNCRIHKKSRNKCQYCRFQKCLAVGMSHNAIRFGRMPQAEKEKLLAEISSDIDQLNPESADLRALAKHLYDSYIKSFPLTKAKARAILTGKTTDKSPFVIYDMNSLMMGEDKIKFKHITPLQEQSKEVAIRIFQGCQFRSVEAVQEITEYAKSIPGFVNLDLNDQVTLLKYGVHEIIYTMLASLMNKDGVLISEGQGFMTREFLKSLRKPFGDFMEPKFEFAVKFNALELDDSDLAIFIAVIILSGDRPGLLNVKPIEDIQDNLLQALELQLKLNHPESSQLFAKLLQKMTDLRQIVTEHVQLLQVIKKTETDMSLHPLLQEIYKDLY
Chain of Peroxisome proliferator-activated receptor gamma/Nuclear receptor coactivator 2 (Q15596 whole entry, further chain): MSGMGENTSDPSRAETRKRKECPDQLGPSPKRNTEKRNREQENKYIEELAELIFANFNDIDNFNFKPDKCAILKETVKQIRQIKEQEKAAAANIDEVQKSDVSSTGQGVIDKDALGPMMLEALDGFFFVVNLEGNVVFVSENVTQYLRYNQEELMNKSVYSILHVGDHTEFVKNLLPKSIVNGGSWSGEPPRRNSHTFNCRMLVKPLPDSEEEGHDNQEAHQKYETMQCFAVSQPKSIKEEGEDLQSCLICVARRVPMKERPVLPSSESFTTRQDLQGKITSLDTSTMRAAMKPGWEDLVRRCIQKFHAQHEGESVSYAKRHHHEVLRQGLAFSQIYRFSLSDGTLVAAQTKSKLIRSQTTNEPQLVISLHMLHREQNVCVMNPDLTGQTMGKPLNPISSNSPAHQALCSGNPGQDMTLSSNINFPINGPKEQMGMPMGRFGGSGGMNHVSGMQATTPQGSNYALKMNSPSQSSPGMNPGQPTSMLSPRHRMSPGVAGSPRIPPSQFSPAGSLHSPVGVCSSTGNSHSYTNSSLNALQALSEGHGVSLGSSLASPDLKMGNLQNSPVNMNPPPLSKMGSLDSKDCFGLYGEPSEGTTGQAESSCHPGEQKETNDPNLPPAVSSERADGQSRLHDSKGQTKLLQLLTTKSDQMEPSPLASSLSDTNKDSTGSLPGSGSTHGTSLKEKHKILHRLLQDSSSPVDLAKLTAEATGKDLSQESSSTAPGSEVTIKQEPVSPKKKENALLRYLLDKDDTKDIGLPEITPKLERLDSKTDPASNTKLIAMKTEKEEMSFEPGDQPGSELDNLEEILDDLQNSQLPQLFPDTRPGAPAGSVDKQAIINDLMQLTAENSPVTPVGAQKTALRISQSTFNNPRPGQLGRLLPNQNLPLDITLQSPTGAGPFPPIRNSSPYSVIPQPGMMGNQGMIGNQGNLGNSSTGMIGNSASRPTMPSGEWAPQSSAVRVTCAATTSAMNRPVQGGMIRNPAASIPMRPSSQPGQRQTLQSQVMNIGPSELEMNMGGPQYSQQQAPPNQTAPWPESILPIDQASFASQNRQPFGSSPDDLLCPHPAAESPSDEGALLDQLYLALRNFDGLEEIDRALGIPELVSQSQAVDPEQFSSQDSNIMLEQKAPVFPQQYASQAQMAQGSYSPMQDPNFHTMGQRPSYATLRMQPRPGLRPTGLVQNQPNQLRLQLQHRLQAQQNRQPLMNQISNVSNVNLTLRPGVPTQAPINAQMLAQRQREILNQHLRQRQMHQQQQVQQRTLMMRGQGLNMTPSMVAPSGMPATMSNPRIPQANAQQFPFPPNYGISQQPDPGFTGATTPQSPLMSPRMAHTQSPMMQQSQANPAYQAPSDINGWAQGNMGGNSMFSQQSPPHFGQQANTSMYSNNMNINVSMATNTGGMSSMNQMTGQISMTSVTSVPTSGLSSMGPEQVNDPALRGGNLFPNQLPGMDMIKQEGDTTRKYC
Chain of Luciferin 4-monooxygenase (P08659 whole entry): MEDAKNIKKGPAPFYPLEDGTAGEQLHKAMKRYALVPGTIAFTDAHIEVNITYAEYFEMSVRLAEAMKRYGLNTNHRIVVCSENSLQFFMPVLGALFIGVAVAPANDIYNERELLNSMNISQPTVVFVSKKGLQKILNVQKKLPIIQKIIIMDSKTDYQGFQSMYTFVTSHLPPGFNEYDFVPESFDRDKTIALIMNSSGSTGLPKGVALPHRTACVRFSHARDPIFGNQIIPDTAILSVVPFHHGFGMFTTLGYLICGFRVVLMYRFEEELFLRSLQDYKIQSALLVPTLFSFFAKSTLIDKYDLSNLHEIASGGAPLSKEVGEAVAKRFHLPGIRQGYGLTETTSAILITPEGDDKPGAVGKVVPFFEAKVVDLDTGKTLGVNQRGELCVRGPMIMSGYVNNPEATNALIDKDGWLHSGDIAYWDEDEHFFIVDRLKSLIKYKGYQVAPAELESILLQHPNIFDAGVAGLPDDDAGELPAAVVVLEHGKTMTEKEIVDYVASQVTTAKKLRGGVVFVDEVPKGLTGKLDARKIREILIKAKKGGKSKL

## O=C(Nc1ccc(Br)cc1Cl)Nn1cnnc1
Procathepsin L
  IC50: > 59.6 µM (not active)
Aspartyl aminopeptidase
  IC50: 0.711 µM (active)

## CC(=O)N1c2ccccc2S(=O)(=O)c2ccccc21
NADPH oxidase 1
  IC50: > 20 µM (not active)

## O=C(NCc1ccco1)c1cccn2c(=O)c3cc4ccccc4cc3nc12
[1]
  IC50: > 50 µM (not active)
[2]
  EC50: 12.4 µM (active)
[3]
  IC50: > 50 µM (not active)
[4]
  EC50: 10.7 µM (active)

## O=C(Oc1oc(-c2ccco2)nc1/C=N/c1ccc(Cl)cc1)c1ccco1
Cytochrome P450 1A2
  AC50: 15.8 µM (inconclusive)
[5]
  EC50: 14.3 µM (active)
Cytochrome P450 2C19
  AC50: 14.1 µM (inconclusive)
H4
  EC50: 31.7 µM (active)
[6]
  EC50: 21.7 µM (active)
[7]
  CC50: > 40 µM (active)

## CS(=O)(=O)N(Cc1ccccc1)c1ccc(C(=O)N2CCN(c3cccc(Cl)c3)CC2)cc1
[7]
  CC50: > 40 µM (active)

## CC1CCc2c(sc3nc(SCC(=O)NCc4ccco4)nc(N)c23)C1 (stereo unspecified)
[8]
  EC50: > 79.4 µM (not active)
[9]
  EC50: > 79.4 µM (not active)
[10]
  EC50: > 79.4 µM (not active)

## CCOCCOC(=O)c1[nH]c2c(c1C)C(=O)CC(c1ccccc1)C2 (stereo unspecified)
BJ [11]
  EC50: 0.756 µM (active)
[12]
  IC50: > 80 µM (inactive)
BJ [13]
  EC50: 12.6 µM (active)
BJ [14]
  EC50: 0.851 µM (inconclusive)
BJ [15]
  EC50: < 0.104 µM (inconclusive)
[16]
  EC50: 1.29 µM (active)
[17]
  IC50: 0.521 µM (active)

## [O-][S+]1c2ccccc2Nc2ccccc21
NADPH oxidase 1
  IC50: > 20 µM (not active)

## Cc1ccccc1NC(=O)c1cnc2ccccn2c1=O
HT-1080
  EC50: > 50 µM (not active)
[18]
  EC50: 46.4 µM (active)

## O=C(O)CSc1nnc[nH]1
Procathepsin L
  IC50: > 59.6 µM (not active)
Aspartyl aminopeptidase
  IC50: 0.202 µM (active)

## CCc1ccc(CC2S/C(=C(\C#N)C(C)=O)NC2=O)cc1 (stereo unspecified)
[19]
  IC50: 27.9 µM (active)
Vero [20]
  IC50: 13.2 µM (active)
Vero [21]
  CC50: > 25 µM (active)

## COc1ccc(Cc2nc(-c3ccc(NC(=O)c4cccnc4)cc3)no2)cc1
BJ [11]
  EC50: > 150 µM (not active)
[22]
  IC50: > 80 µM (inactive)
[23]
  EC50: 11.2 µM (active)
INS1
  AC50: < 0.195 µM (active)
[24]
  EC50: 5.99 µM (active)
[25]
  EC50: 8.73 µM (active)
BJ [13]
  EC50: 2.38 µM (active)
BJ [14]
  EC50: > 150 µM (inconclusive)
BJ [15]
  EC50: 58.4 µM (active)
[16]
  EC50: > 150 µM (not active)
[17]
  IC50: 0.649 µM (active)

## CC(C)Nc1ncnc2c1cnn2-c1ccc(Cl)cc1
[26]
  AC50: 13.3 µM (active)
[27]
  AC50: 11.9 µM (active)
[28]
  IC50: > 67.5 µM (inactive)
cells
  IC50: > 67.5 µM (inactive)
HT-1080
  EC50: > 50 µM (not active)
[18]
  EC50: 15.3 µM (active)

## O=C(C1=C[C@@H](c2ccc(Br)cc2)C[C@@H](OCCCCO)O1)N1CCN(Cc2ccc3c(c2)OCO3)CC1
[23]
  EC50: 16.3 µM (active)
[8]
  EC50: > 79.4 µM (not active)
[24]
  EC50: 20.5 µM (active)
[9]
  EC50: > 79.4 µM (not active)
[10]
  EC50: > 79.4 µM (not active)

## O=c1oc(-c2cccs2)nc2ccc(Br)cc12
[19]
  IC50: 28.9 µM (active)
Cytochrome P450 2C19
  AC50: 22.4 µM (inconclusive)
